Measurements taken from publication doi:10.1101/844506v1 (biorxiv, 2019).

Target: B8CYA8 (β-glucosidase from Halothermothrix orenii) (Halothermothrix orenii, UniProt B8CYA8)
Assay: melting temperature shift
Assay type: binding
Settings: 0.5 M glucose

Sequence of B8CYA8 (β-glucosidase from Halothermothrix orenii) (B8CYA8 1-451): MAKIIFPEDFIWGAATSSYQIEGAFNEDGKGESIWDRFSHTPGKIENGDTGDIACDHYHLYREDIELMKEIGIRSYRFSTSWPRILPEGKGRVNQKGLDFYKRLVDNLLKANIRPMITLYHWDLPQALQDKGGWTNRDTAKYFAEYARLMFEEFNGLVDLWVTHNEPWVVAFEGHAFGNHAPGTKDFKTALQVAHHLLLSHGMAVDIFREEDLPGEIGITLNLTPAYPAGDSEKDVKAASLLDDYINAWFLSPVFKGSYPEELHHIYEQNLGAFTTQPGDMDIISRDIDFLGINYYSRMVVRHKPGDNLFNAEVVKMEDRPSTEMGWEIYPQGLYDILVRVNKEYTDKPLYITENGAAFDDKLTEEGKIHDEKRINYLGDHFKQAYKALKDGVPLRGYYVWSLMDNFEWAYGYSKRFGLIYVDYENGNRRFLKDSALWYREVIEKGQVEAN

OC[C@H]1OC(O)[C@H](O)[C@@H](O)[C@@H]1O (stereo partly shown) [glucose]
increase in melting temperature: 4-5 °C
